Source: patent US11566007B2, “Ras inhibitors” (Revolution Medicines, Inc., priority 2019, dated 2023)

Tests used:
[1] = tested on: NCI-H358 cells (K-Ras G12C); assay: Potency assay: pERK in NCI-H358 cells; format: cell-based, human; conditions: Homo sapiens, NCI-H358; H358 KRAS G12C; read-out: pERK EC50
In short: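 pERK decrease read by AlphaLISA SureFire p-ERK1/2 or In-Cell Western after 4 h compound exposure at 37 °C, 5% CO2.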

[2] = tested on: NCI-H358 (K-Ras G12C); assay: CellTiter-Glo cell viability assay, NCI-H358; format: cell-based, human; conditions: Homo sapiens, NCI-H358, 120 h, NCI-H358, 5-day treatment; class symbols; read-out: Additional H358 Cell Viability assay data (K-Ras G12C, IC50)
In short: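 Compounds dispensed directly onto seeded K-Ras mutant cells; plates read on day 5 after ~30 min equilibration to room temperature, by CellTiter-Glo luminescence. Signal normalized as (sample/mean DMSO)×100, then fitted to a four-parameter logistic curve.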

[3] = biological target: K-Ras G12C (Homo sapiens (Human), UniProt P01116+P62937, G12C); assay: Ras-Raf (BRAF RBD) disruption / FRET / MOA assay, KRAS G12C; format: biochemical; conditions: KRAS G12C; Ras-Raf disruption/FRET/MOA assay; read-out: IC50* KRAS G12C FRET data
Chain of K-Ras G12C (P01116-2 other isoform, or with tags, fused parts or gaps G12C): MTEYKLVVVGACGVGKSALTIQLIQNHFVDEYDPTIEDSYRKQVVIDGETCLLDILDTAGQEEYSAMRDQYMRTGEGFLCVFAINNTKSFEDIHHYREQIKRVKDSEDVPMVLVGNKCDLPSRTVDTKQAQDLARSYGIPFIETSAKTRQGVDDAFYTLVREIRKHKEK
Chain of K-Ras G12C (P62937 whole entry): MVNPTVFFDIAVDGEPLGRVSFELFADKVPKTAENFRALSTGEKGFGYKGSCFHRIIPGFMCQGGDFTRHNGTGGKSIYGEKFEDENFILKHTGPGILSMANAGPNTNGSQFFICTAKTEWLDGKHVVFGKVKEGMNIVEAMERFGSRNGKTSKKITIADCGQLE
In short: (§1)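 A 10-point, 3-fold dilution series topping at 30 μM final was incubated 3 h at 25° C with the Ras/cyclophilin A/BRAF RBD mixture.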

[4] = biological target: K-Ras G13C (Homo sapiens (Human), UniProt P01116+P62937, G13C); assay: Ras-Raf (BRAF RBD) disruption / FRET / MOA assay, KRAS G13C; format: biochemical; conditions: KRAS G13C; Ras-Raf disruption/FRET/MOA assay; read-out: IC50* KRAS G13C FRET data
Chain of K-Ras G13C (P01116-2 other isoform, or with tags, fused parts or gaps G13C): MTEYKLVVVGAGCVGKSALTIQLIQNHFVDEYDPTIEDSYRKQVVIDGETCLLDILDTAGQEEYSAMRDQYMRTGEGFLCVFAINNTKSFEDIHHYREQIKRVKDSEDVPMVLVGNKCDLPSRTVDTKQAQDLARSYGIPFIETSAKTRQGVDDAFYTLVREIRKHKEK
Chain of K-Ras G13C (P62937 whole entry): as the sequence (P62937 whole entry) above
In short: as §1

[5] = biological target: KRAS G12S (Homo sapiens (Human), UniProt P01116+P62937, G12S); assay: Ras-Raf (BRAF RBD) disruption / FRET / MOA assay, KRAS G12S; format: biochemical; conditions: Ras-Raf disruption/FRET/MOA assay; class symbols; read-out: KRAS G12S FRET data IC50
Chain of KRAS G12S (P01116-2 other isoform, or with tags, fused parts or gaps G12S): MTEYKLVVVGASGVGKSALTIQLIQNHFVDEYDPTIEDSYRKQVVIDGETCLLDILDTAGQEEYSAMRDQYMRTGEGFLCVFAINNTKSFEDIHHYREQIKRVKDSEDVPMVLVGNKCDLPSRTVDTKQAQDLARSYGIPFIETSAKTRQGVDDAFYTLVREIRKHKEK
Chain of KRAS G12S (P62937 whole entry): as the sequence (P62937 whole entry) above
In short: as §1

[6] = biological target: KRAS G12D (Homo sapiens (Human), UniProt P01116+P62937, G12D); assay: Ras-Raf (BRAF RBD) disruption / FRET / MOA assay, KRAS G12D; format: biochemical; conditions: Ras-Raf disruption/FRET/MOA assay; class symbols; read-out: KRAS G12D FRET data IC50
Chain of KRAS G12D (P01116-2 other isoform, or with tags, fused parts or gaps G12D): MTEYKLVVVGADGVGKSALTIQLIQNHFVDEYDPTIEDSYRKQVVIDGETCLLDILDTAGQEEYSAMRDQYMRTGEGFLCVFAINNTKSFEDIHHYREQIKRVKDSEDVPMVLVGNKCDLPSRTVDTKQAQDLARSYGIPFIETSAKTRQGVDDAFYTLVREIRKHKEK
Chain of KRAS G12D (P62937 whole entry): as the sequence (P62937 whole entry) above
In short: as §1

[7] = biological target: KRAS G12V (Homo sapiens (Human), UniProt P01116+P62937, G12V); assay: Ras-Raf (BRAF RBD) disruption / FRET / MOA assay, KRAS G12V; format: biochemical; conditions: read-out: IC50* KRAS G12V FRET data
Chain of KRAS G12V (P01116-2 other isoform, or with tags, fused parts or gaps G12V): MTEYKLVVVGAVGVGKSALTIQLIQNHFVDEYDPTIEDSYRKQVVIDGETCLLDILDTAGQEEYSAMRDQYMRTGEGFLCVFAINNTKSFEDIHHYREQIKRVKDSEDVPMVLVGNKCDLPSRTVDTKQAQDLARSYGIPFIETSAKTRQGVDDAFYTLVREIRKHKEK
Chain of KRAS G12V (P62937 whole entry): as the sequence (P62937 whole entry) above
In short: as §1

[8] = biological target: KRAS WT (Homo sapiens (Human), UniProt P01116+P62937); assay: Ras-Raf (BRAF RBD) disruption / FRET / MOA assay, KRAS WT; format: biochemical; conditions: read-out: IC50* KRAS WT FRET data
Chain of KRAS WT (P01116-2 other isoform, or with tags, fused parts or gaps): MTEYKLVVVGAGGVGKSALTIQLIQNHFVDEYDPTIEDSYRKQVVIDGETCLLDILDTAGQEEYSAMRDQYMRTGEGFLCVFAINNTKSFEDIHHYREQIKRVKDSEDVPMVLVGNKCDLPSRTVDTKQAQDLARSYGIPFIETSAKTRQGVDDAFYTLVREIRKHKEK
Chain of KRAS WT (P62937 whole entry): as the sequence (P62937 whole entry) above
In short: as §1

[9] = biological target: KRAS G13D (Homo sapiens (Human), UniProt P01116+P62937, G13D); assay: Ras-Raf (BRAF RBD) disruption / FRET / MOA assay, KRAS G13D; format: biochemical; conditions: read-out: IC50* KRAS G13D FRET data
Chain of KRAS G13D (P01116-2 other isoform, or with tags, fused parts or gaps G13D): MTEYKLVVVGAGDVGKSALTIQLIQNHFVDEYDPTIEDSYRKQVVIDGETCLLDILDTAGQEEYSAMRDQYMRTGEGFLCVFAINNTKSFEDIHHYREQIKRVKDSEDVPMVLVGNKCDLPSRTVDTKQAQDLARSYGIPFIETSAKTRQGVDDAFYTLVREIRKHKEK
Chain of KRAS G13D (P62937 whole entry): as the sequence (P62937 whole entry) above
In short: as §1

[10] = biological target: NRAS G12C (Homo sapiens (Human), UniProt P01111+P62937, G12C); assay: Ras-Raf (BRAF RBD) disruption / FRET / MOA assay, NRAS G12C; format: biochemical; conditions: read-out: IC50* NRAS G12C FRET data
Chain of NRAS G12C (P01111 whole entry G12C): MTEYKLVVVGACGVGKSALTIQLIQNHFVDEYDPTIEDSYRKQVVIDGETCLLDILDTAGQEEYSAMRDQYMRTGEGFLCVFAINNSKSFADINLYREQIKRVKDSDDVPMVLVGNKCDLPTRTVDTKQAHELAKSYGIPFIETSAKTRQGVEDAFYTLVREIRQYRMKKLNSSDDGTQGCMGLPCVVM
Chain of NRAS G12C (P62937 whole entry): as the sequence (P62937 whole entry) above
In short: as §1

Compound | EC50 [1] [µM] | IC50 [2] [µM] | IC50 [3] [µM] | IC50 [4] [µM] | IC50 [5] [µM] | IC50 [6] [µM] | IC50 [7] [µM] | IC50 [8] [µM] | IC50 [9] [µM] | IC50 [10] [µM]
CCn1c(-c2cccnc2)c2c3cc(ccc31)-c1cc(O)cc(c1)C[C@H](NC(=O)[C@H](C(C)C)N(C)C(=O)[C@H]1CCN(C(=O)C#CCN(C)C)C1)C(=O)N1CCC[C@H](N1)C(=O)OCC(C)(C)C2 [Example A142] | < 5 | 0.1 to 1 | 0.01 to 0.1 | 0.1 to 1 | > 10 | 1 to 10 | > 10 | > 10 | 1 to 10 | 0.01 to 0.1
C=CC(=O)N1CCN(C(=O)N(C)[C@H](C(=O)N[C@H]2Cc3cc(O)cc(c3)-c3ccc4c(c3)c(c(-c3ccccc3CCOC)n4CC)CC(C)(C)COC(=O)[C@@H]3CCCN(N3)C2=O)C(C)C)C[C@H]1COC [Example A146] | < 5 | 0.1 to 1 | 0.1 to 1 | 0.1 to 1 | 1 to 10 | > 10 | 1 to 10 | 1 to 10 | 1 to 10 | 0.1 to 1
C=CC(=O)N(C)CC(=O)N(C)[C@H](C(=O)N[C@H]1Cc2cc(O)cc(c2)-c2ccc3c(c2)c(c(-c2cccnc2COC)n3CC)CC(C)(C)COC(=O)[C@@H]2CCCN(N2)C1=O)C(C)C [Example A147] | < 5 | 0.01 to 0.1 | 0.1 to 1 | 0.1 to 1 | 0.1 to 1 | 1 to 10 | 0.1 to 1 | 0.1 to 1 | 1 to 10 | 0.1 to 1
C#CC(=O)N1CC[C@H](C(=O)N(C)[C@H](C(=O)N[C@H]2Cc3cc(O)cc(c3)-c3ccc4c(c3)c(c(-c3cnccc3[C@H](C)OC)n4CC)CC(C)(C)COC(=O)[C@@H]3CCCN(N3)C2=O)C(C)C)C1 [Example A150] | < 5 | < 0.01 | 0.01 to 0.1 | 0.01 to 0.1 | 0.1 to 1 | 1 to 10 | 0.1 to 1 | 0.1 to 1 | 0.1 to 1 | 0.01 to 0.1
CCn1c(-c2cccnc2)c2c3cc(ccc31)-c1cccc(c1)C[C@H](NC(=O)[C@H](C(C)C)N(C)C(=O)[C@H]1CCN(C(=O)C#CCN(C)C)C1)C(=O)N1CCC[C@H](N1)C(=O)OCC(C)(C)C2 [Example A152] | < 5 | 0.01 to 0.1 | 0.01 to 0.1 | 1 to 10 | > 10 | 1 to 10 | 1 to 10 | 1 to 10 | 1 to 10 | 0.01 to 0.1
CCn1c(-c2cnccc2COC)c2c3cc(ccc31)-c1cc(O)cc(c1)C[C@H](NC(=O)[C@H](C(C)C)N(C)C(=O)[C@H]1CCN(C(=O)C(C)(C)N(C)C)C1)C(=O)N1CCC[C@H](N1)C(=O)OCC(C)(C)C2 [Example A153] | < 5 | 0.1 to 1 | 0.01 to 0.1 | 0.1 to 1 | 0.1 to 1 | 0.1 to 1 | 0.1 to 1 | 0.1 to 1 | 0.1 to 1 | 0.01 to 0.1
C=CC(=O)N1CC[C@H](C(=O)N(C)[C@H](C(=O)N[C@H]2Cc3cc(O)cc(c3)-c3ccc4c(c3)c(c(-c3cn(C)nc3[C@H](C)OC)n4CC)CC(C)(C)COC(=O)[C@@H]3CCCN(N3)C2=O)C(C)C)C1 [Example A154] | < 5 | 0.01 to 0.1 | 0.01 to 0.1 | 1 to 10 | 0.1 to 1 | 1 to 10 | 0.1 to 1 | 1 to 10 | 1 to 10 | 0.01 to 0.1
CCn1c(-c2cccnc2COC)c2c3cc(ccc31)-c1cc(C)cc(c1)C[C@H](NC(=O)[C@H](C(C)C)N(C)C(=O)[C@H]1CCN(C(=O)C#CCN(C)C)C1)C(=O)N1CCC[C@H](N1)C(=O)OCC(C)(C)C2 [Example A156] | < 5 | 0.01 to 0.1 | 0.01 to 0.1 | 1 to 10 | > 10 | 1 to 10 | > 10 | > 10 | 1 to 10 | 0.1 to 1
